Results from PubChem BioAssay AID330 (DTP/NCI, 2004).
“And” between values parts separate entries of the source, which are not always exact repeats. Equal values may be shown once. Inconclusive results and toxic doses are left out. The calls were made as follows: active = survival T/C of 150% or more; inactive = T/C below 125% in these data.

System: P388 leukemia ip, CD2F1 mice, survival T/C
Assay: NCI In Vivo Anticancer Drug Screen. Data for tumor model P388 Leukemia (intraperitoneal) in CD2F1 (CDF1) mice
Conditions: endpoint: median survival time, higher = longer survival
Procedure, shortened: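 Mice carrying the transplanted tumor received test compound or vehicle. Survival was recorded in each group, and the value is the treated-group measurement divided by that of the vehicle-treated control group.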

[1] = dose: 60.0 mg/kg/injection, schedule: Q01DX005 (ip), vehicle: saline with Tween-80
[2] = dose: 120.0 mg/kg/injection, schedule: Q01DX005 (ip), vehicle: saline with Tween-80
[3] = dose: 240.0 mg/kg/injection, schedule: Q01DX005 (ip), vehicle: saline with Tween-80
[4] = dose: 50.0 mg/kg/injection, schedule: Q01DX005 (ip), vehicle: Klucel (hydroxypropylcellulose) (HPC)
[5] = dose: 50.0 mg/kg/injection, schedule: Q01DX005 (ip), vehicle: saline with Tween-80
[6] = dose: 100.0 mg/kg/injection, schedule: Q01DX005 (ip), vehicle: saline with Tween-80
[7] = dose: 200.0 mg/kg/injection, schedule: Q01DX005 (ip), vehicle: saline with Tween-80
[8] = dose: 100.0 mg/kg/injection, schedule: Q01DX005 (ip), vehicle: Klucel (hydroxypropylcellulose) (HPC)
[9] = dose: 200.0 mg/kg/injection, schedule: Q01DX005 (ip), vehicle: Klucel (hydroxypropylcellulose) (HPC)
[10] = dose: 50.0 mg/kg/injection, schedule: Q01DX009 (ip), vehicle: Klucel (hydroxypropylcellulose) (HPC)
[11] = dose: 100.0 mg/kg/injection, schedule: Q01DX009 (ip), vehicle: Klucel (hydroxypropylcellulose) (HPC)
[12] = dose: 50.0 mg/kg/injection, schedule: Q01DX009 (ip), vehicle: saline with Tween-80
[13] = dose: 100.0 mg/kg/injection, schedule: Q01DX009 (ip), vehicle: saline with Tween-80
[14] = dose: 200.0 mg/kg/injection, schedule: Q01DX009 (ip), vehicle: saline with Tween-80
[15] = dose: 200.0 mg/kg/injection, schedule: Q01DX009 (ip), vehicle: saline
[16] = dose: 12.5 mg/kg/injection, schedule: Q01DX009 (ip), vehicle: saline

Measured: T/C

c1ccc2nc3c(ccc4ccccc43)cc2c1
inactive: dose: 50.0 mg/kg/injection, schedule: Q04DX003 (ip), vehicle: olive oil, sesame oil, peanut oil 101 % of control | dose: 91.0 mg/kg/injection, schedule: Q04DX003 (ip), vehicle: saline with Tween-80 104 % of control | dose: 100.0 mg/kg/injection, schedule: Q04DX003 (ip), vehicle: olive oil, sesame oil, peanut oil 103 % of control | dose: 182.0 mg/kg/injection, schedule: Q04DX003 (ip), vehicle: saline with Tween-80 101 % of control | dose: 200.0 mg/kg/injection, schedule: Q04DX003 (ip), vehicle: olive oil, sesame oil, peanut oil 103 % of control | dose: 364.0 mg/kg/injection, schedule: Q04DX003 (ip), vehicle: saline with Tween-80 99 % of control | dose: 400.0 mg/kg/injection, schedule: Q04DX003 (ip), vehicle: olive oil, sesame oil, peanut oil 105 % of control

O=C1C=CC(=NBr)C=C1
inactive: [1] 108 % of control | [2] 110 % of control | [3] 108 % of control

Nc1nnnn1CCCCO
inactive: dose: 50.0 mg/kg/injection, schedule: Q01DX005 (ip), vehicle: saline 104 % of control | dose: 100.0 mg/kg/injection, schedule: Q01DX005 (ip), vehicle: saline 103 % of control | dose: 200.0 mg/kg/injection, schedule: Q01DX005 (ip), vehicle: saline 111 % of control | dose: 400.0 mg/kg/injection, schedule: Q01DX005 (ip), vehicle: saline 120 % of control

CCC#CC(=O)OCC
inactive: [1] 113 % of control | [2] 102 % of control | [3] 121 % of control

Nc1ccc(S(=O)c2ccc(N)cc2)cc1
inactive: dose: 6.25 mg/kg/injection, schedule: Q04DX003 (ip), vehicle: saline 118 % of control | dose: 12.5 mg/kg/injection, schedule: Q04DX003 (ip), vehicle: saline 107 % of control | dose: 25.0 mg/kg/injection, schedule: Q04DX003 (ip), vehicle: saline 104 % of control | dose: 50.0 mg/kg/injection, schedule: Q04DX003 (ip), vehicle: saline 109 % of control

CCOC(=O)NN(C(=O)OCC)C(C(C)=O)C(C)=NCCN=C(C)C(C(C)=O)N(NC(=O)OCC)C(=O)OCC.[Cu] (centres undefined)
inactive: dose: 12.5 mg/kg/injection, schedule: Q01DX005 (ip), vehicle: Klucel (hydroxypropylcellulose) (HPC) 100 % of control | dose: 25.0 mg/kg/injection, schedule: Q01DX005 (ip), vehicle: Klucel (hydroxypropylcellulose) (HPC) 105 % of control | [4] 100 % of control and 107 % of control

CN(C)CC(CN(C)C)C(=O)/C=C/c1ccc(O)cc1
inactive: dose: 1.56 mg/kg/injection, schedule: Q01DX005 (ip), vehicle: saline 105 % of control | dose: 3.12 mg/kg/injection, schedule: Q01DX005 (ip), vehicle: saline 114 % of control | dose: 6.25 mg/kg/injection, schedule: Q01DX005 (ip), vehicle: saline 114 % of control

CCOC(=O)Nc1cc(N(C)CC(O)c2ccccc2)c(N)c(N)n1 (centres undefined)
inactive: dose: 50.0 mg/kg/injection, schedule: Q01DX001 (ip), vehicle: saline with Tween-80 104 % of control | dose: 100.0 mg/kg/injection, schedule: Q01DX001 (ip), vehicle: saline with Tween-80 94 % of control | dose: 200.0 mg/kg/injection, schedule: Q01DX001 (ip), vehicle: saline with Tween-80 94 % of control

CC(C)CC(NC(=O)C(C)N)C(=O)OC(C)(C)C (centres undefined)
inactive: [5] 101 % of control | [6] 102 % of control | [7] 96 % of control

O=C1c2ccccc2-c2ccc(NC(=O)C34CC5CC(CC(C5)C3)C4)cc21
inactive: [4] 86 % of control | [8] 87 % of control | [9] 90 % of control

S=C(Nc1ccc(Cl)c(Cl)c1)N1c2ccccc2-n2cccc2C1c1cccnc1 (centres undefined)
inactive: dose: 25.0 mg/kg/injection, schedule: Q01DX009 (ip), vehicle: Klucel (hydroxypropylcellulose) (HPC) 115 % of control | [10] 113 % of control | [11] 113 % of control | dose: 200.0 mg/kg/injection, schedule: Q01DX009 (ip), vehicle: Klucel (hydroxypropylcellulose) (HPC) 121 % of control

CCOC(=N)Cc1ccccc1
inactive: dose: 25.0 mg/kg/injection, schedule: Q01DX009 (ip), vehicle: saline with Tween-80 103 % of control | [12] 94 % of control | [13] 101 % of control | [14] 100 % of control

OC1(c2ccccc2)c2ccccc2NC2=NCCN21 (centres undefined)
inactive: dose: 25.0 mg/kg/injection, schedule: Q01DX005 (ip), vehicle: saline with Tween-80 105 % of control | [5] 96 % of control | [6] 104 % of control | [7] 97 % of control

OCC1CC2C3CC(CO)C(C3)C2C1 (centres undefined)
inactive: [1] 105 % of control | [2] 100 % of control | [3] 98 % of control

CCOC(=O)C(C)c1ccccc1 (centres undefined)
inactive: dose: 50.0 mg/kg/injection, schedule: Q01DX009 (ip), vehicle: saline 96 % of control | dose: 100.0 mg/kg/injection, schedule: Q01DX009 (ip), vehicle: saline 105 % of control | [15] 99 % of control

CCOC(=O)CSC(=O)c1cccnc1Oc1ccccc1
inactive: [4] 94 % of control | [8] 90 % of control | [9] 93 % of control

N#CC1C(=O)NC(=S)NC1c1ccc(Cl)cc1 (centres undefined)
inactive: [10] 94 % of control | [11] 101 % of control

Nc1ncnc2c(C3OC(CO)C(O)C3O)[nH]nc12 (centres undefined)
inactive: dose: 1.25 mg/kg/injection, schedule: Q01DX009 (ip), vehicle: saline 109 % of control | dose: 2.5 mg/kg/injection, schedule: Q01DX009 (ip), vehicle: saline 109 % of control | dose: 5.0 mg/kg/injection, schedule: Q01DX009 (ip), vehicle: saline 118 % of control | dose: 5.56 mg/kg/injection, schedule: Q01DX009 (ip), vehicle: saline 109 % of control | dose: 6.25 mg/kg/injection, schedule: Q01DX009 (ip), vehicle: saline sonified 104 % of control | dose: 8.33 mg/kg/injection, schedule: Q01DX009 (ip), vehicle: saline 90 % of control | dose: 12.0 mg/kg/injection, schedule: Q01DX009 (ip), vehicle: saline sonified 105 % of control | [16] 122 % of control | dose: 18.7 mg/kg/injection, schedule: Q01DX009 (ip), vehicle: saline 90 % of control

C[C@@]12C[C@@H](Br)[C@H](Br)C[C@]1(C)O2
inactive: [5] 104 % of control | [6] 106 % of control | [7] 101 % of control

OC1(c2ccccc2)c2cccc(Cl)c2C(O)(c2ccccc2)c2c(Cl)cccc21 (centres undefined)
inactive: [12] 99 % of control | [13] 99 % of control | [14] 97 % of control

Cc1ccc(-c2nc3ccccc3c(=O)n2C(C)C)cc1
inactive: [12] 100 % of control | [13] 98 % of control | [14] 87 % of control

CC1(C)C=C(Cc2ccccc2)C(=O)c2ccccc21
inactive: [13] 90 % of control | [14] 100 % of control | dose: 400.0 mg/kg/injection, schedule: Q01DX009 (ip), vehicle: saline with Tween-80 95 % of control

CCCCC(NC(=O)CC)C(=O)O (centres undefined)
inactive: dose: 6.25 mg/kg/injection, schedule: Q01DX009 (ip), vehicle: saline 107 % of control | [16] 94 % of control | dose: 25.0 mg/kg/injection, schedule: Q01DX009 (ip), vehicle: saline 98 % of control | [15] 100 % of control
